According to patent publication US6753010B2, “Soft gelatin capsule containing angelica oil” (Shandong Luye Phamaceutical Co., Ltd., priority 2000, dated 2004):

Assay: Influence of temperature on ligustilide content in angelica essential oil (gas chromatography, internal standard diethyl phthalate)
Assay type: physicochemical
Conditions: for Content of ligustilide: in angelica essential oil, sealed vial
Description: Gas chromatograph (Shimadzu GC-14B); Diethyl phthalate (Shanghai First Reagents Factory, purity is 99.7% tested by gas chromatography with area normalization method); angelica essential oil (991007).
Test group: Five portions of angelica essential oil (30 μl each) are placed separately in five 7 ml-sealing vials numbered with 0, 1, 2, 3 and 4, weighed accurately and sealed. The vials are laid in an oven (100° C.) and the samples are taken out of the oven after 0, 1, 2, 3 and 4 hours respectively. Anabout 16 μl of diethyl phthalate as the internal standard is added. Then the samples are weighed accurately and diluted with ca. 1 ml of ethyl alcohol additionally. According to the method in the item of ? Purity Test ? under “Protocol and Remarks of the Quality standard for Angelica essential oil” the content of ligustilide is determined.
Control group: Five portions of angelica essential oil (30 μl each) are placed separately in five 7 ml-sealing vials numbered with 0′, 1′, 2′, 3′ and 4′, weighed accurately and sealed. The vials are laid aside under room temperature of 20° C. and about 16 μl of diethyl phthalate as internal standard is added after 0, 1, 2, 3 and 4 hours respectively. […] with ca. 1 ml of ethyl alcohol additionally. According to the method in the item of ? Purity Test ? under “Protocol and Remarks of the Quality standard for Angelica essential oil”, the content of ligustilide is determined.

## CCC/C=C1\OC(=O)C2=C1CCC=C2 [ligustilide]
In angelica essential oil under room temperature (20° C.)
  Stability of ligustilide content (in words): relatively stable
In angelica essential oil under temperature of 100° C.
  Stability of ligustilide content (in words): decreases gradually
Higher temperature (100° C.), 0 hour
  Content of ligustilide: 55.50%
Higher temperature (100° C.), 1 hour
  Content of ligustilide: 41.89%
Higher temperature (100° C.), 2 hours
  Content of ligustilide: 32.74%
Higher temperature (100° C.), 3 hours
  Content of ligustilide: 21.89%
Higher temperature (100° C.), 4 hours
  Content of ligustilide: 12.00%
Room temperature (20° C.), 0 hour
  Content of ligustilide: 55.5%
Room temperature (20° C.), 1 hour
  Content of ligustilide: 56.01%
Room temperature (20° C.), 2 hours
  Content of ligustilide: 56.66%
Room temperature (20° C.), 3 hours
  Content of ligustilide: 55.78%
Room temperature (20° C.), 4 hours
  Content of ligustilide: 55.39%
